{
  "source": "ChEMBL document CHEMBL1629577",
  "about": "“Activity of T-705 in a hamster model of yellow fever virus infection in comparison with that of a chemically related compound, T-1106” (Antimicrob Agents Chemother, 2009)",
  "key": {"Yellow fever virus [1]": {"system": "Yellow fever virus", "assay": "Antiviral activity against 10^2 CCID50 Yellow fever virus Jimenez infected in syrian golden hamster assessed as serum ALT level in non surviving animals at 400 mg/kg/day, po administered 5 days post viral infection", "type": "functional"}, "Yellow fever virus [2]": {"system": "Yellow fever virus", "assay": "Antiviral activity against 10^2 CCID50 Yellow fever virus Jimenez infected in syrian golden hamster assessed as mean day of death […] at 400 mg/kg/day, po administered twice daily for 8 days started 1 day post infection", "type": "functional"}, "Yellow fever virus [3]": {"system": "Yellow fever virus", "assay": "Antiviral activity against 10^2 CCID50 Yellow fever virus Jimenez infected in syrian golden hamster assessed as mean day of death […] at 400 mg/kg/day, po administered twice daily for 8 days started 2 day post infection", "type": "functional"}, "Yellow fever virus [4]": {"system": "Yellow fever virus", "assay": "Antiviral activity against 10^2 CCID50 Yellow fever virus Jimenez infected in syrian golden hamster assessed as mean day of death of mice at 400 mg/kg/day, po administered twice daily for 8 days started 4 day post infection", "type": "functional"}, "Yellow fever virus [5]": {"system": "Yellow fever virus", "assay": "Antiviral activity against 10^2 CCID50 Yellow fever virus Jimenez infected in syrian golden hamster assessed as survival of animal at 400 mg/kg/day, po administered twice daily for 8 days started 1 day post viral infection", "type": "functional, organism-based"}, "Yellow fever virus [6]": {"system": "Yellow fever virus", "assay": "Antiviral activity against 10^2 CCID50 Yellow fever virus Jimenez infected in syrian golden hamster assessed as survival of animal at 400 mg/kg/day, po administered twice daily for 8 days started 2 day post viral infection", "type": "functional, organism-based"}, "Yellow fever virus [7]": {"system": "Yellow fever virus", "assay": "Antiviral activity against Yellow fever virus 17D infected in African green monkey Vero cells assessed as inhibition of virus induced cytopathic effect by microscopic analysis", "type": "functional, cell-based"}, "Yellow fever virus [8]": {"system": "Yellow fever virus", "assay": "Antiviral activity against Yellow fever virus 17D infected in African green monkey Vero cells assessed as inhibition of virus induced cytopathic effect […] by NR dye uptake assay", "type": "functional, cell-based"}, "Yellow fever virus [9]": {"system": "Yellow fever virus", "assay": "Antiviral activity against Yellow fever virus 17D infected in African green monkey Vero cells assessed as time required for inhibition of viral replication at 6400 uM up to 12 hrs post-viral infection", "type": "functional, cell-based"}, "Yellow fever virus [10]": {"system": "Yellow fever virus", "assay": "Antiviral activity against 10^2 CCID50 Yellow fever virus Jimenez infected in syrian golden hamster assessed as serum ALT level at 400 mg/kg/day, po administered twice daily for 8 days started 4 hrs prior to viral infection", "type": "functional"}, "Yellow fever virus [11]": {"system": "Yellow fever virus", "assay": "Antiviral activity against 10^2 CCID50 Yellow fever virus Jimenez infected in syrian golden hamster assessed as serum ALT level at 100 mg/kg/day, po administered twice daily for 8 days started 4 hrs prior to viral infection", "type": "functional"}, "Yellow fever virus [12]": {"system": "Yellow fever virus", "assay": "Antiviral activity against 10^2 CCID50 Yellow fever virus Jimenez infected in syrian golden hamster assessed as reduction in viral titer in liver at 200 mg/kg/day administered twice daily for 8 days started 6 days post infection by quantitative RT-PCR analysis", "type": "functional, organism-based"}, "Yellow fever virus [13]": {"system": "Yellow fever virus", "assay": "Antiviral activity against 10^2 CCID50 Yellow fever virus Jimenez infected in syrian golden hamster assessed as serum ALT level at 200 mg/kg/day, po administered twice daily for 8 days started 4 hrs prior to viral infection", "type": "functional"}, "Yellow fever virus [14]": {"system": "Yellow fever virus", "assay": "Antiviral activity against 10^2 CCID50 Yellow fever virus Jimenez infected in syrian golden hamster assessed as serum AST level at 400 mg/kg/day, po administered twice daily for 8 days started 4 hrs prior to viral infection", "type": "functional, organism-based"}, "Yellow fever virus [15]": {"system": "Yellow fever virus", "assay": "Antiviral activity against 10^2 CCID50 Yellow fever virus Jimenez infected in syrian golden hamster assessed as serum AST level at 200 mg/kg/day, po administered twice daily for 8 days started 4 hrs prior to viral infection", "type": "functional, organism-based"}, "Yellow fever virus [16]": {"system": "Yellow fever virus", "assay": "Antiviral activity 10^2 CCID50 Yellow fever virus Jimenez infected in syrian golden hamster assessed as serum AST level at 100 mg/kg/day, po administered twice daily for 8 days started 4 hrs prior to viral infection", "type": "functional, organism-based"}, "Yellow fever virus [17]": {"system": "Yellow fever virus", "assay": "Antiviral activity against 10^2 CCID50 Yellow fever virus Jimenez infected in syrian golden hamster assessed as serum AST level at 50 mg/kg/day, po administered twice daily for 8 days started 4 hrs prior to viral infection", "type": "functional, organism-based"}, "Yellow fever virus [18]": {"system": "Yellow fever virus", "assay": "Antiviral activity against 10^2 CCID50 Yellow fever virus Jimenez infected in syrian golden hamster assessed as serum AST level at 32 mg/kg/day, po administered twice daily for 8 days started 4 hrs prior to viral infection", "type": "functional, organism-based"}, "Yellow fever virus [19]": {"system": "Yellow fever virus", "assay": "Antiviral activity against 10^2 CCID50 Yellow fever virus Jimenez infected in syrian golden hamster assessed as mean day of death […] at 400 mg/kg/day, po administered twice daily for 8 days started 4 hrs prior to viral infection relative to control", "type": "functional"}, "Yellow fever virus [20]": {"system": "Yellow fever virus", "assay": "Antiviral activity against 10^2 CCID50 Yellow fever virus Jimenez infected in syrian golden hamster assessed as mean day of death […] at 200 mg/kg/day, po administered twice daily for 8 days started 4 hrs prior to viral infection relative to control", "type": "functional"}, "Yellow fever virus [21]": {"system": "Yellow fever virus", "assay": "Antiviral activity against 10^2 CCID50 Yellow fever virus Jimenez infected in syrian golden hamster assessed as survival of animal at 400 mg/kg/day, po administered twice daily for 8 days started 4 hrs prior to viral infection", "type": "functional, organism-based"}, "Yellow fever virus [22]": {"system": "Yellow fever virus", "assay": "Antiviral activity against 10^2 CCID50 Yellow fever virus Jimenez infected in syrian golden hamster assessed as serum ALT level at 400 mg/kg/day, po administered daily for days started 1 day post viral challenge", "type": "functional"}, "Yellow fever virus [23]": {"system": "Yellow fever virus", "assay": "Antiviral activity against 10^2 CCID50 Yellow fever virus Jimenez infected in syrian golden hamster assessed as serum AST level at 400 mg/kg/day, po administered daily for days started 1 day post viral challenge", "type": "functional"}, "Yellow fever virus [24]": {"system": "Yellow fever virus", "assay": "Antiviral activity against 10^2 CCID50 Yellow fever virus Jimenez infected in syrian golden hamster assessed as serum ALT level at 400 mg/kg/day, po administered daily for days started 2 day post viral challenge", "type": "functional"}, "Yellow fever virus [25]": {"system": "Yellow fever virus", "assay": "Antiviral activity against 10^2 CCID50 Yellow fever virus Jimenez infected in syrian golden hamster assessed as serum AST level at 400 mg/kg/day, po administered daily for days started 2 day post viral challenge", "type": "functional"}, "Yellow fever virus [26]": {"system": "Yellow fever virus", "assay": "Antiviral activity against 10^2 CCID50 Yellow fever virus Jimenez infected in syrian golden hamster assessed as serum ALT level at 400 mg/kg/day, po administered daily for days started 3 day post viral challenge", "type": "functional"}, "Yellow fever virus [27]": {"system": "Yellow fever virus", "assay": "Antiviral activity against 10^2 CCID50 Yellow fever virus Jimenez infected in syrian golden hamster assessed as serum AST level at 400 mg/kg/day, po administered daily for days started 3 day post viral challenge", "type": "functional"}, "Yellow fever virus [28]": {"system": "Yellow fever virus", "assay": "Antiviral activity against 10^2 CCID50 Yellow fever virus Jimenez infected in syrian golden hamster assessed as serum AST level at 400 mg/kg/day, po administered daily for days started 4 day post viral challenge", "type": "functional"}, "Yellow fever virus [29]": {"system": "Yellow fever virus", "assay": "Antiviral activity against 10^2 CCID50 Yellow fever virus Jimenez infected in syrian golden hamster assessed as serum ALT level at 400 mg/kg/day, po administered daily for days started 5 day post viral challenge", "type": "functional"}, "Yellow fever virus [30]": {"system": "Yellow fever virus", "assay": "Antiviral activity against 10^2 CCID50 Yellow fever virus Jimenez infected in syrian golden hamster assessed as serum ALT level in surviving animals at 400 mg/kg/day, po administered 5 days post viral infection", "type": "functional"}, "Yellow fever virus [31]": {"system": "Yellow fever virus", "assay": "Antiviral activity against 10^2 CCID50 Yellow fever virus Jimenez infected in syrian golden hamster assessed as serum AST level in surviving animals at 400 mg/kg/day, po administered 4 days post viral infection", "type": "functional"}, "Yellow fever virus [32]": {"system": "Yellow fever virus", "assay": "Antiviral activity against 10^2 CCID50 Yellow fever virus Jimenez infected in syrian golden hamster assessed as serum ALT level in non surviving animals at 400 mg/kg/day, po administered 4 days post viral infection", "type": "functional"}},
  "note": "Activity calls are given as the source filed them. No cut-off for these calls is given here.",
  "data": [
    {"smiles": "NC(=O)c1nc(F)cnc1O", "note": "[FAVIPIRAVIR]", "values": [
      {"measurement": "Activity", "setting": "Yellow fever virus [1]", "result": 332, "unit": "IU/L"},
      {"measurement": "Time", "setting": "Yellow fever virus [2]", "result": ">21", "unit": "days"},
      {"measurement": "Time", "setting": "Yellow fever virus [3]", "result": ">21", "unit": "days"},
      {"measurement": "Time", "setting": "Yellow fever virus [4]", "result": 6.5, "unit": "days"},
      {"measurement": "Activity", "setting": "Yellow fever virus [5]", "result": "Active"},
      {"measurement": "Activity", "setting": "Yellow fever virus [6]", "result": "Active"},
      {"measurement": "EC50", "setting": "Yellow fever virus [7]", "result": 180, "unit": "µM"},
      {"measurement": "EC50", "setting": "Yellow fever virus [8]", "result": 270, "unit": "µM"},
      {"measurement": "Activity", "setting": "Yellow fever virus [9]", "result": "Active"},
      {"measurement": "Activity", "setting": "Yellow fever virus [10]", "result": 63, "unit": "IU/L"},
      {"measurement": "Activity", "setting": "Yellow fever virus [11]", "result": 157, "unit": "IU/L"},
      {"measurement": "Activity", "setting": "Yellow fever virus [12]", "result": "Active"},
      {"measurement": "Activity", "setting": "Yellow fever virus [13]", "result": 128, "unit": "IU/L"},
      {"measurement": "Activity", "setting": "Yellow fever virus [14]", "result": "inactive"},
      {"measurement": "Activity", "setting": "Yellow fever virus [15]", "result": "inactive"},
      {"measurement": "Activity", "setting": "Yellow fever virus [16]", "result": "inactive"},
      {"measurement": "Activity", "setting": "Yellow fever virus [17]", "result": "inactive"},
      {"measurement": "Activity", "setting": "Yellow fever virus [18]", "result": "inactive"},
      {"measurement": "Time", "setting": "Yellow fever virus [19]", "result": 6, "unit": "days"},
      {"measurement": "Time", "setting": "Yellow fever virus [20]", "result": ">21", "unit": "days"},
      {"measurement": "Activity", "setting": "Yellow fever virus [21]", "result": "Active"},
      {"measurement": "Activity", "setting": "Yellow fever virus [22]", "result": 80, "unit": "IU/L"},
      {"measurement": "Activity", "setting": "Yellow fever virus [23]", "result": 52, "unit": "IU/L"},
      {"measurement": "Activity", "setting": "Yellow fever virus [24]", "result": 84, "unit": "IU/L"},
      {"measurement": "Activity", "setting": "Yellow fever virus [25]", "result": 75, "unit": "IU/L"},
      {"measurement": "Activity", "setting": "Yellow fever virus [26]", "result": 139, "unit": "IU/L"},
      {"measurement": "Activity", "setting": "Yellow fever virus [27]", "result": 137, "unit": "IU/L"},
      {"measurement": "Activity", "setting": "Yellow fever virus [28]", "result": 131, "unit": "IU/L"},
      {"measurement": "Activity", "setting": "Yellow fever virus [29]", "result": 157, "unit": "IU/L"},
      {"measurement": "Activity", "setting": "Yellow fever virus [30]", "result": 64, "unit": "IU/L"},
      {"measurement": "Activity", "setting": "Yellow fever virus [31]", "result": 132, "unit": "IU/L"},
      {"measurement": "Activity", "setting": "Yellow fever virus [32]", "result": 231, "unit": "IU/L"}
    ]}
  ]
}
